Data: patent US9499550B2 (BRISTOL-MYERS SQUIBB COMPANY, priority 2012, dated 2016)
Read-outs that look alike come from different tables or passages of the source.

What was measured:
[1] = tested on: HCV genotype 1a (H77 strain) replicon in HUH-7 cells; assay: HCV replicon luciferase reporter assay, genotype 1a; assay type: cell-based; conditions: Hepatitis C virus, Huh-7, 72 h, 3 days incubation, read-out: LE_1a (EC50, range)
How it was run: (§1)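 Replicon inhibition for both genotypes was measured as Renilla luciferase signal (EnduRen, 7.5 μM final, 2 h) after 3-day, 37° C exposure of replicon-bearing HUH-7 cells in 4% FCS DMEM, 0.5% DMSO. The 1b construct carries S1179I; the 1a H77 construct carries P1496L and S2204I. Twenty-point, 3-fold dilutions were fitted four-parametrically for EC50, and CC50 was taken from multiplexed Cell Titer-Blue.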

[2] = tested on: HCV genotype 1b (Con1) replicon in HUH-7 cells; assay: HCV replicon luciferase reporter assay, genotype 1b; assay type: cell-based; conditions: Hepatitis C virus, Huh-7, 72 h, 3 days incubation, read-out: LE_1b (EC50, range)
How it was run: as §1

[3] = GETYPE1A, HCV genotype 1a replicon luciferase
[4] = GETYPE1B, HCV genotype 1b replicon luciferase
[5] = HCV genotype 1a replicon luciferase
[6] = HCV genotype 1b replicon luciferase
[7] = HCV genotype 1a replicon luciferase assay, range class
[8] = HCV genotype 1b replicon luciferase assay, range class

Row | SMILES | EC50 [1, 5] | EC50 [2, 6] | further results
1 | COc1cc2ccnc(O[C@@H]3C[C@H]4C(=O)N[C@]5(C(=O)NS(=O)(=O)C6(F)CC6)C[C@H]5/C=C\CC[C@@H](C)C[C@@H](C)[C@H](NC(=O)OC(C)(C)C(F)(F)F)C(=O)N4C3)c2cc1F [Compound 4069] | – | – | EC50 [1, 3]: < 5.46 nM; EC50 [2, 4]: < 5.46 nM
2 | COc1ccc2c(O[C@@H]3C[C@H]4C(=O)N[C@]5(C(=O)NS(=O)(=O)C6(C)CC6)C[C@H]5/C=C\CC[C@H](C)C[C@@H](C)[C@H](NC(=O)NC(C)(C)C)C(=O)N4C3)nc(-c3ccc(OC(C)C)nc3)cc2c1 [Compound 5230, (2R,6S,7R,9S,13aS,14aR,16aS,Z)-6-(3-(tert-butyl)ureido)-2-((3-(6-isopropoxypyridin-3-yl)-6-methoxyisoquinolin-1-yl)oxy)-7,9-dimethyl-N-((1-methylcyclopropyl)sulfonyl)-5,16-dioxo-1,2,3,5,6,7,8,9,10,11,13a,14,14a,15,16,16a-hexadecahydrocyclopropa[e]pyrrolo[1,2-a][1,4]diazacyclopentadecine-14a-carboxamide] | 4.82 to 103 nM | < 5.46 nM | –
3 | CCOc1cnc(O[C@@H]2C[C@H]3C(=O)N[C@]4(C(=O)NS(=O)(=O)C5(C)CC5)C[C@H]4/C=C\CC[C@@H](C)C[C@@H](C)[C@H](NC(=O)Oc4ccc(F)cc4F)C(=O)N3C2)c2ccccc12 [Compound 4138, 2,4-difluorophenyl (2R,6S,7R,9R,13aS,14aR,16aS,Z)-2-(4-ethoxyisoquinolin-1-yloxy)-7,9-dimethyl-14a-(1-methylcyclopropylsulfonylcarbamoyl)-5,16-dioxo-1,2,3,5,6,7,8,9,10,11,13a,14,14a,15,16,16a-hexadecahydrocyclopropa[e]pyrrolo[1,2-a][1,4]diazacyclopentadecin-6-ylcarbamate] | 4.82 to 103 nM | 4.82 to 103 nM | –
4 | CC[C@@H]1C[C@H](C)CC/C=C\[C@@H]2C[C@@]2(C(=O)NS(=O)(=O)C2(CF)CC2)NC(=O)[C@@H]2C[C@@H](Oc3nccc4c5c(ccc34)N(C)CCO5)CN2C(=O)[C@H]1NC(=O)OC(C)(C)C(F)(F)F [Compound 5465, 1,1,1-trifluoro-2-methylpropan-2-yl((2R,6S,7R,9R,13aS,14aR,16aS,Z)-7-ethyl-14a-(((1-(fluoromethyl)cyclopropyl)sulfonyl)carbamoyl)-9-methyl-2-((4-methyl-3,4-dihydro-2H-[1,4]oxazino[2,3-f]isoquinolin-7-yl)oxy)-5,16-dioxo-1,2,3,5,6,7,8,9,10,11,13a,14,14a,15,16,16a-hexadecahydrocyclopropa[e]pyrrolo[1,2-a][1,4]diazacyclopentadecin-6-yl)carbamate] | 1.01 to 5 nM | 1.01 to 5 nM | –
5 | CC[C@@H]1C[C@H](C)CC/C=C\[C@@H]2C[C@@]2(C(=O)NS(=O)(=O)C2(C)CC2)NC(=O)[C@@H]2C[C@@H](Oc3ncc(OC)c4ccc(F)cc34)CN2C(=O)[C@H]1NC(=O)c1ccn(C)n1 [Compound 4356, (2R,6S,7R,9R,13aS,14aR,16aS,Z)-7-ethyl-2-((7-fluoro-4-methoxyisoquinolin-1-yl)oxy)-9-methyl-6-(1-methyl-1H-pyrazole-3-carboxamido)-N-((1-methylcyclopropyl)sulfonyl)-5,16-dioxo-1,2,3,5,6,7,8,9,10,11,13a,14,14a,15,16,16a-hexadecahydrocyclopropa[e]pyrrolo[1,2-a][1,4]diazacyclopentadecine-14a-carboxamide] | 0.51 to 1 nM | 0.1 to 0.5 nM | –
6 | CCn1nc(O[C@@H]2C[C@H]3C(=O)N[C@]4(C(=O)NS(=O)(=O)C5(C)CC5)C[C@H]4/C=C\CC[C@@H](C)C[C@@H](C)[C@H](NC(=O)c4ccc(N(C)C)cc4)C(=O)N3C2)c2ccccc2c1=O [Compound 5061, (2R,6S,7R,9R,13aS,14aR,16aS,Z)-6-(4-(dimethylamino)benzamido)-2-((3-ethyl-4-oxo-3,4-dihydrophthalazin-1-yl)oxy)-7,9-dimethyl-N-((1-methylcyclopropyl)sulfonyl)-5,16-dioxo-1,2,3,5,6,7,8,9,10,11,13a,14,14a,15,16,16a-hexadecahydrocyclopropa[e]pyrrolo[1,2-a][1,4]diazacyclopentadecine-14a-carboxamide] | 4.82 to 103 nM | 4.82 to 103 nM | –
7 | COc1ccc2c(O[C@@H]3C[C@H]4C(=O)N[C@]5(C(=O)NS(=O)(=O)C6(C)CC6)C[C@H]5/C=C\CC[C@H](C)C[C@@H](C)[C@H](NC(=O)OC(C)(C)C)C(=O)N4C3)nc(-c3ccc(OC(C)C)c(F)c3)cc2c1 [Compound 3061, tert-butyl ((2R,6S,7R,9S,13aS,14aR,16aS,Z)-2-((3-(3-fluoro-4-isopropoxyphenyl)-6-methoxyisoquinolin-1-yl)oxy)-7,9-dimethyl-14a-(((1-methylcyclopropyl)sulfonyl)carbamoyl)-5,16-dioxo-1,2,3,5,6,7,8,9,10,11,13a,14,14a,15,16,16a-hexadecahydrocyclopropa[e]pyrrolo[1,2-a][1,4]diazacyclopentadecin-6-yl)carbamate] | – | – | EC50 [1, 7]: 4.82 to 103 nM; EC50 [2, 8]: < 5.46 nM
8 | COc1cnc(O[C@@H]2C[C@H]3C(=O)N[C@]4(C(=O)NS(=O)(=O)C5CC5)C[C@H]4/C=C\CC[C@@H](C)C[C@@H](C)[C@H](NC(=O)OC(C)(C)C)C(=O)N3C2)c2cc(Cl)ccc12 [Compound 1207, tert-butyl ((2R,6S,7R,9R,13aS,14aR,16aS,Z)-2-((7-chloro-4-methoxyisoquinolin-1-yl)oxy)-14a-((cyclopropylsulfonyl)carbamoyl)-7,9-dimethyl-5,16-dioxo-1,2,3,5,6,7,8,9,10,11,13a,14,14a,15,16,16a-hexadecahydrocyclopropa[e]pyrrolo[1,2-a][1,4]diazacyclopentadecin-6-yl)carbamate] | 1.01 to 5 nM | 0.51 to 1 nM | –
9 | CC(C)Oc1ccc2c(O[C@@H]3C[C@H]4C(=O)N[C@]5(C(=O)NS(=O)(=O)C6CC6)C[C@H]5/C=C\CC[C@H](C)C[C@@H](C)[C@H](NC(=O)OC(C)(C)C)C(=O)N4C3)nccc2c1 [Compound 5145, tert-butyl ((2R,6S,7R,9S,13aS,14aR,16aS,Z)-14a-((cyclopropylsulfonyl)carbamoyl)-2-((6-isopropoxyisoquinolin-1-yl)oxy)-7,9-dimethyl-5,16-dioxo-1,2,3,5,6,7,8,9,10,11,13a,14,14a,15,16,16a-hexadecahydrocyclopropa[e]pyrrolo[1,2-a][1,4]diazacyclopentadecin-6-yl)carbamate] | 4.82 to 103 nM | < 5.46 nM | –
10 | C[C@H]1CC/C=C\[C@@H]2C[C@@]2(C(=O)NS(=O)(=O)C2CC2)NC(=O)[C@@H]2C[C@@H](Oc3nccc4c5c(ccc34)OC(F)(F)O5)CN2C(=O)[C@@H](NC(=O)O[C@H](C)C(F)(F)F)[C@H](C)C1 [Compound 5269, (R)-1,1,1-trifluoropropan-2-yl ((2R,6S,7R,9S,13aS,14aR,16aS,Z)-14a-((cyclopropylsulfonyl)carbamoyl)-2((2,2-difluoro-[1,3]dioxolo[4,5-f]isoquinolin-6-yl)oxy)-7,9-dimethyl-5,16-dioxo-1,2,3,5,6,7,8,9,10,11,13a,14,14a,15,16,16a-hexadecahydrocyclopropa[e]pyrrolo[1,2-a][1,4]diazacyclopentadecin-6-yl)carbamate] | 4.82 to 103 nM | 4.82 to 103 nM | –
11 | CC[C@@H]1C[C@H](C)CC/C=C\[C@@H]2C[C@@]2(C(=O)NS(=O)(=O)C2(C)CC2)NC(=O)[C@@H]2C[C@@H](Oc3cnc4ccc(OC)cc4c3)CN2C(=O)[C@H]1NC(=O)OC(C)(C)C(F)(F)F [Compound 4100] | – | – | EC50 [1, 3]: < 5.46 nM; EC50 [2, 4]: < 5.46 nM
12 | C[C@@H]1CCCC(O)[C@@H]2C[C@@]2(C(=O)NS(=O)(=O)C2(C)CC2)NC(=O)[C@@H]2C[C@@H](Oc3ncc(OC4CC4)c4ccccc34)CN2C(=O)[C@@H](NC(=O)OC(C)(C)C(F)(F)F)[C@H](C)C1 (stereo partly shown) [Compound 2002] | – | – | EC50 [1, 7]: 4.82 to 103 nM; EC50 [2, 8]: 4.82 to 103 nM
13 | C[C@@H]1CC/C=C\[C@@H]2C[C@@]2(C(=O)NS(=O)(=O)C2CC2)NC(=O)[C@@H]2C[C@@H](Oc3nccc4c5c(ccc34)OCCO5)CN2C(=O)[C@@H](NC(=O)OC(C)(C)C(F)(F)F)[C@H](C)C1 [Compound 5259, 1,1,1-trifluoro-2-methylpropan-2-yl((2R,6S,7R,9R,13aS,14aR,16aS,Z)-14a-((cyclopropylsulfonyl)carbamoyl)-2-((2,3-dihydro-[1,4]dioxino[2,3-f]isoquinolin-7-yl)oxy)-7,9-dimethyl-5,16-dioxo-1,2,3,5,6,7,8,9,10,11,13a,14,14a,15,16,16a-hexadecahydrocyclopropa[e]pyrrolo[1,2-a][1,4]diazacyclopentadecin-6-yl)carbamate] | < 5.46 nM | < 5.46 nM | –
14 | COc1ccc2c(O[C@@H]3C[C@H]4C(=O)N[C@]5(C(=O)NS(=O)(=O)C6(CF)CC6)C[C@H]5/C=C\CC[C@H](C)C[C@@H](C)[C@H](NC(=O)OC5(C(F)(F)F)CCCOC5)C(=O)N4C3)ncc(C(F)(F)F)c2c1 (stereo partly drawn) [Compound 1176, 3-(trifluoromethyl)tetrahydro-2H-pyran-3-yl((2R,6S,7R,9S,13aS,14aR,16aS,Z)-14a-(((1-(fluoromethyl)cyclopropyl)sulfonyl)carbamoyl)-2-((6-methoxy-4-(trifluoromethyl)isoquinolin-1-yl)oxy)-7,9-dimethyl-5,16-dioxo-1,2,3,5,6,7,8,9,10,11,13a,14,14a,15,16,16a-hexadecahydrocyclopropa[e]pyrrolo[1,2-a][1,4]diazacyclopentadecin-6-yl)carbamate] | – | – | EC50 [1, 7]: 4.82 to 103 nM; EC50 [2, 8]: 4.82 to 103 nM
